Experimental data taken from ChEMBL document CHEMBL3137667, “[Drug-induced liver injury; fourteenth updated edition of the bibliographic database of liver injuries and related drugs]” (Gastroenterol Clin Biol, 2004).

Assays:
[1] = human
[2] = human; remark: listed apart in the source
[3] = human; remark: listed apart in the source
[4] = human, serum
[5] = human; remark: listed apart in the source
[6] = human; remark: listed apart in the source
[7] = human, serum; remark: listed apart in the source
[8] = human; remark: listed apart in the source
[9] = Highest frequency of acute liver toxicity observed during clinical trials, expressed as a percentage. [column '% AIGUE' in source]; settings: human
[10] = human; remark: listed apart in the source
[11] = human; remark: listed apart in the source
[12] = human; remark: listed apart in the source
[13] = human, serum, 4383 h
[14] = Highest frequency of moderate liver toxicity observed during clinical trials, expressed as a percentage. [column '% BIOL' in source]; settings: human
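For Hepatotoxicity (association with vascular disease) in this document: count of indexed literature references reporting vascular liver injury in humans, e.g. peliosis hepatitis, hepatic veno-occlusive disease or Budd-Chiari syndrome.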
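For Hepatotoxicity (benign tumour) in this document: value is a count of indexed literature references citing a benign tumour confirmed by histopathology.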
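For Hepatotoxicity (choleostasis) in this document: human cholestatic liver injury, shown by histopathology or by peak ALT or AST elevation over alkaline phosphatase ratio below 2, value counts indexed literature reports.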
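For Hepatotoxicity (chronic liver disease) in this document: chronic liver injury confirmed by histopathology or persistently raised serum aminotransferase activity beyond 6 months, value given as the count of indexed literature references.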
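For Hepatotoxicity (cirrhosis) in this document: value is a count of indexed literature references reporting cirrhosis confirmed by histopathology.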
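For Hepatotoxicity (cytolytic) in this document: human cytolytic liver injury, shown by histopathology or by a ratio above 5 of peak ALT or AST elevation to alkaline phosphatase elevation, value counts indexed references.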
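For Hepatotoxicity (granulomatous hepatitis) in this document: value is a count of indexed literature references reporting granulomatous liver disease confirmed by histopathology.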
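For Hepatotoxicity (malignant tumour) in this document: malignant tumour confirmed by histopathology, value gives the count of indexed literature references reporting it.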
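For Hepatotoxicity (severe hepatitis) in this document: human clinical data: severe hepatitis, meaning potentially life-threatening liver failure or clinically observed cases, the value counts how many indexed literature references report it.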
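For Hepatotoxicity (steatosis) in this document: steatosis confirmed by histopathology, value is the count of indexed references.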

Compound	Hepatotoxicity (malignant tumour) [1]	Hepatotoxicity (choleostasis) [2]	Hepatotoxicity (benign tumour) [3]	Hepatotoxicity (acute) [4]	Hepatotoxicity (granulomatous hepatitis) ([5]; Liver)	Hepatotoxicity (cytolytic) ([6]; Liver)	Hepatotoxicity (moderate) [7]	Hepatotoxicity (choleostasis) ([2]; Liver)	Hepatotoxicity (severe hepatitis) ([8]; Liver)	Hepatotoxicity (acute) ([9]; Liver)	Hepatotoxicity (cirrhosis) [10]	Hepatotoxicity (association with vascular disease) [11]	Hepatotoxicity (steatosis) [12]	Hepatotoxicity (chronic liver disease) [13]	Hepatotoxicity (moderate) ([14]; Liver)	Hepatotoxicity (granulomatous hepatitis) [5]	Hepatotoxicity (cytolytic) [6]	Hepatotoxicity (severe hepatitis) [8]	Hepatotoxicity (acute) [9]	Hepatotoxicity (moderate) [14]
C[C@]12C=CC(=O)C=C1CC[C@@H]1[C@@H]2CC[C@@]2(C)[C@H]1CC[C@]2(C)O (stereo in doubt; form 2) [METHANDROSTENOLONE]	1	1	0	1																
CC(C)(C)NCC(O)c1ccc(O)c(CO)c1 (stereo unspecified) [ALBUTEROL]	0		0		0	0	0	0	0	4%	0	0	0	0	0%					
CCn1nc(C(=O)O)c(=O)c2cc3c(cc21)OCO3 [CINOXACIN]	0	0	0				3				0	0	0	0		0	0	0	0%	1%
O=c1oc2ccccc2c(O)c1Cc1c(O)c2ccccc2oc1=O [DICUMAROL]	0	0	0				3				0	0	0	0		0	0	0		0%
COc1cccc2c1C(=O)c1c(O)c3c(c(O)c1C2=O)C[C@@](O)(C(=O)CO)C[C@@H]3O[C@H]1C[C@H](N)[C@@H](O)[C@H](C)O1 [EPIRUBICIN]	0	0	0	0			3				0	0	0	0		0	0	0		6.4%
CC(C)(C(=O)O)c1ccc(C(O)CCCN2CCC(C(O)(c3ccccc3)c3ccccc3)CC2)cc1 (stereo unspecified) [FEXOFENADINE]	0		0		0	0	1	0	0		0	0	0	0	1.8%					
CO[C@@]1(NC(=O)CSC(F)F)C(=O)N2C(C(=O)O)=C(CSc3nnnn3CCO)CO[C@@H]21 [FLOMOXEF]	0	0	0				55				0	0	0	0		0	0	0	0%	33.3%
C#C[C@]1(O)CC[C@H]2[C@@H]3CCC4=CC(=O)CC[C@@H]4[C@H]3CC[C@@]21CC [LEVONORGESTREL]	0		0		0	0	1	0	0		0	0	0	0	0.4%					
CC(=O)NC[C@H]1CN(c2ccc(N3CCOCC3)c(F)c2)C(=O)O1 [LINEZOLID]	0	0	0				1				0	0	0	0		0	0	0		1%
C#CC(C)(O)CC (stereo unspecified) [MEPARFYNOL]	0	1	0				0				0	0	0	0		0	0	0		0%
CC1CS(=O)(=O)CCN1/N=C/c1ccc([N+](=O)[O-])o1 (stereo unspecified) [NIFURTIMOX]	0		0		0	0	0	0	0		0	0	0	0	0%					
CCn1cc(C(=O)O)c(=O)c2cc(F)c(N3CCN(C)CC3)cc21 [PEFLOXACIN]	0	0	0	0			5		0	0%	0		0	0	16.7%	0	0			
Oc1c(Cl)c(Cl)c(Cl)c(Cl)c1Cl [PENTACHLOROPHENOL]	0	0	0				0				0	0	1	1		0	0	0		0%
CC(C)NCC(O)COc1cccc2[nH]ccc12 (stereo unspecified) [PINDOLOL]	0	0	0				1				0	0	0	0		0	0	0	0%	7%
Nc1ccc(S(=O)(=O)Nc2ccccn2)cc1 [SULFAPYRIDINE]	0	0	0				0		0		0	0	0	0	0%	0	0			
NC(=O)c1csc([C@@H]2O[C@H](CO)[C@@H](O)[C@H]2O)n1 [TIAZOFURIN]	0	0	0				7				0	0	0	0		0	0	0	0%	62.5%
Oc1ncc(N(CCCl)CCCl)c(O)n1 [URACIL MUSTARD]	0		0		0	1	0	0	0		0	0	0	1	0%					
CARBETIMER	0	0	0	0			2				0	0	0	0		0	0	0	0%	
